This is an account of results in US6420137B1 (American Home Products Corporation, priority 1998, dated 2002).

Where a name gives a salt, the structure may show the parent alone.

The subject of test [1] is HNT2RS. In words: Competition of [3H]neurotensin binding, membranes from GH4C1 cells stably expressing HNT2RS. Conditions: HNT2RS (short form), FIG. 1B. Set-up: species or system human.
Procedure: (§2) A: Binding to membranes from GH4C1 cells stably expressing HNT2RL. B: Binding to membranes from GH4C1 cells stably expressing HNT2RS.
The adherent cells were removed from the plates with PBS and 2 mM EDTA, pelleted by centrifugation at 1,500×g for 10 minutes at 4° C., and resuspended in ice cold homogenization buffer (1 mM sodium bicarbonate, 1 mM EDTA, 1 mM EGTA, pH 7.2) containing 1×protease inhibitors (5 μg/ml leupeptin, 5 μug/ml aprotinin, 100 μg/ml bacitracin, and 100 μg/ml benzamidine). After 10 minutes on ice, the cells were lysed by dounce homogenizing for 20 strokes in a glass/glass homogenizer. The cell lysate was centrifuged at 1,500×g for 10 minutes at 4° C. to remove the nuclei and cell debris and the supernatant containing the cell membranes were harvested by centrifugation at 20,000×g for 30 minutes at 4° C. The membrane pellet was resuspended in 1×homogenization buffer containing 1×protease inhibitors and once again pelleted. The membrane pellet was then resuspended at 1-5 mg/ml in 25 mM Tris, pH 7.4 and either directly used in binding assays or frozen (−80° C.) in small aliquots for future use.
Radioligand binding assays: competition binding. All radioligand binding assays were performed in 96-well microtiter plates using 1×binding buffer (50 mM HEPES, pH 7.4, 10 mM MgCl2, 0.2% BSA, pH 7.4) containing protease inhibitors (5 μg/ml leupeptin, 5 μmg/ml aprotinin, 100 μg/ml bacitracin, and 100 μg/ml benzamidine). […] Binding reactions were initiated by adding 5-100 μg of membrane protein in a 170 μl volume. Final reaction volume was 200 μl/well.
The microtiter plate was placed on a rotary shaker at 200 rpm and incubated at room temperature for 2 hours. Free radioligand was separated from bound ligand by rapid filtration through a glass fiber (GF/C) filter plate pretreated with 0.3% polyethyleneimine for 30 minutes) using a Packard cell harvester. […] After the filter plates were dried in a 37° C. incubator for 2 hours, 25 μl Microscint scintillation fluid (Packard) was added to each well and the plate was counted in a Packard Top Count scintillation counter.
The nature of test [2]: Acute metabolic responses to AcNT(8-13): lipolysis, oxygen consumption. The class given is in vivo. Conditions: administered acutely. The text has this: (§1) Obesity is associated with decreased metabolic energy expenditure and increased metabolic efficiency. Increasing metabolic energy expenditure (thermogenesis) is a desirable characteristic of anti-obesity targets.
Another test deals with fasted ob/ob males. Kind of test: Effect of AcNT(8-13) on appetite / food consumption in mouse models of obesity. The format is in vivo.
Text: as §1

Test [3] relates to neurotensin receptor subtypes NT1R, NT2R, NT3R. Conditions: cited from earlier work.
Another test concerns the target T1, HNT2R (Homo sapiens, UniProt O95665).
T1 construct: The HindIII and XbaI digested full-length receptor cDNAs were inserted into the pRC/CMV (Invitrogen) vector; expressed in transfected cells; host or cells: GH4C1 (rat pituitary) membranes for A6 and A8; CHO-K1 membranes for A9; SK-N-MC whole cells for A11
Kind of test: GTP sensitivity of [3H]NT binding, CHO-K1 membranes stably expressing HNT2R.

Test [4] relates to HNT2RS. Kind of test: GTP sensitivity of [3H]NT binding, CHO-K1 membranes stably expressing HNT2RS. Set-up: species or system human. How it is done:
GTP sensitivity. These radioligand binding assays were performed in 96-well microtiter plates using 1×binding buffer (50 mM HEPES, pH 7.4, 10 mM MgCl2, 0.4% BSA, pH 7.4) containing protease inhibitors (5 μg/ml leupeptin, 5 μg/ml aprotinin, 100 μg/ml bacitracin, and 100 μg/ml benzamidine). […] Wells A1-6 were repeated for each membrane preparation to be tested for GTP sensitivity. Binding reactions were initiated by adding 5-100 μg of membrane protein in a 170 μl volume. Final reaction volume was 200 μl/well. The microtiter plate was placed on a rotary shaker at 200 rpm and incubated at room temperature for 2 hours. Free radioligand was separated from bound ligand by rapid filtration through a glass fiber (GF/C) filter plate pretreated with 0.3% polyethyleneimine using a Packard cell harvester. The filter plates were then washed several times with cold (4° C.) binding buffer lacking BSA. After the filter plates were dried in a 37° C. incubator for 2 hours, 25 μl Microscint scintillation fluid (Packard) was added to each well and the plate was counted in a Packard Top Count scintillation counter.

The target in a further test is T2, HNT2RL (Homo sapiens, UniProt O95665).
T2 construct: The HindIII and XbaI digested full-length receptor cDNAs were inserted into the pRC/CMV (Invitrogen) vector; expressed in transfected cells; host or cells: GH4C1 (rat pituitary) membranes for A6 and A8; CHO-K1 membranes for A9; SK-N-MC whole cells for A11
Kind of test: Competition of [3H]neurotensin binding, membranes from GH4C1 cells stably expressing HNT2RL. Particulars: HNT2RL (long form), FIG. 1A.

Another test concerns the target H1-histamine receptors (Homo sapiens, UniProt P35367). Conditions: cited from earlier work.

H1-histamine receptors, sequence (P35367 whole entry): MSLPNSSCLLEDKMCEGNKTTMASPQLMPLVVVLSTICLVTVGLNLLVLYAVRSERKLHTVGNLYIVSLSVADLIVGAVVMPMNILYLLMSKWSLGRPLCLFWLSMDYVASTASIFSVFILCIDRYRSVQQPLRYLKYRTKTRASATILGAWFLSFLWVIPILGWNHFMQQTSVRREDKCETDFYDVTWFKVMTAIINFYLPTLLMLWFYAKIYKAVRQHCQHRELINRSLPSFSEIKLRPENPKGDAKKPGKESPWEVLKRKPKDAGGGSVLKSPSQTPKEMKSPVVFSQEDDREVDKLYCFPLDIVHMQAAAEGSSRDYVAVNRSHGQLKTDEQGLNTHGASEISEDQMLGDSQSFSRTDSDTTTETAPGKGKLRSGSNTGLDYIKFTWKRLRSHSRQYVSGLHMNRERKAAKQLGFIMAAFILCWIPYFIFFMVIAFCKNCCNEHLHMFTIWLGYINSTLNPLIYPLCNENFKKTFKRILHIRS
T2 sequence (O95665 whole entry): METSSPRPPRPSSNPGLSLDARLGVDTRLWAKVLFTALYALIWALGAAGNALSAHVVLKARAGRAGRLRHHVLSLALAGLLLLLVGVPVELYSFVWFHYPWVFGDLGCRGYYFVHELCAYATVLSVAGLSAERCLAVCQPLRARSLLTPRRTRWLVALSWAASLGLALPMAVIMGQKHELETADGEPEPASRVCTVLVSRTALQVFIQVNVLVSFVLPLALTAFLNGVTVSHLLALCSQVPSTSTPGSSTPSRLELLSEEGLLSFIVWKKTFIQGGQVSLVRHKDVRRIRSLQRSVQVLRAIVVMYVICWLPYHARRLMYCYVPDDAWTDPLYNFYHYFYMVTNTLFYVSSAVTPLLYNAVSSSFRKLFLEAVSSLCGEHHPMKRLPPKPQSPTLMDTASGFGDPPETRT
T1 sequence (O95665 whole entry): as above
Procedure for HNT2RL: as §2
The adherent cells were removed from the plates with PBS and 2 mM EDTA, pelleted by centrifugation at 1,500×g for 10 minutes at 4° C., and resuspended in ice cold homogenization buffer (1 mM sodium bicarbonate, 1 mM EDTA, 1 mM EGTA, pH 7.2) containing 1×protease inhibitors (5 μg/ml leupeptin, 5 μug/ml aprotinin, 100 μg/ml bacitracin, and 100 μg/ml benzamidine). After 10 minutes on ice, the cells were lysed by dounce homogenizing for 20 strokes in a glass/glass homogenizer. The cell lysate was centrifuged at 1,500×g for 10 minutes at 4° C. to remove the nuclei and cell debris and the supernatant containing the cell membranes were harvested by centrifugation at 20,000×g for 30 minutes at 4° C. The membrane pellet was resuspended in 1×homogenization buffer containing 1×protease inhibitors and once again pelleted. […]
The microtiter plate was placed on a rotary shaker at 200 rpm and incubated at room temperature for 2 hours. […] After the filter plates were dried in a 37° C. incubator for 2 hours, 25 μl Microscint scintillation fluid (Packard) was added to each well and the plate was counted in a Packard Top Count scintillation counter.

Consider “AcNT(8-13): N-acetylated form of the carboxyl terminal 6 amino acids of neurotensin (8-13)”, for which the “competition of [3H]neurotensin binding” value with HNT2RS [1] is reported as “equally well”. Also, in test [2], the “lipolytic effects (NEFAs and glycerol)” value is “elevated NEFAs and glycerol”; the oxygen consumption result is on record as “increased”. In addition, the food consumption result with fasted ob/ob males (AcNT(8-13) i.p., fasted ob/ob males) is on record as “biphasic suppression of food consumption”. Besides, in the test with fasted ob/ob males (administered acutely), the “suppression of food consumption” value is 40-60%. The “binding affinity compared with the 13 amino acid form of neurotensin” value in test [3] is reported as “identical”.
Take `C[C@@H]1CN([C@H]2CC[C@](C#N)(c3ccc(F)cc3)CC2)CC[C@]1(C(=O)O)c1ccccc1` [levocabastine, (−)-{3S-[1(cis)-3α4β]}-1-{4-cyano-4-(4-fluoro-phenyl)-cyclohexyl)}-3-methyl-4-phenyl-4-piperidene-carboxylic acid monohydrochloride]: the “reversal of the suppression of food intake mediated by AcNT(8-13)” value in the test on fasted ob/ob males (animals pretreated with antagonist, 50 μg/kg AcNT(8-13)) is “completely reversed”. Besides, in test [3], the “binding to the NT2R subtype” value was “high affinity”; the “selectivity for the NT2R over the NT1R and NT3R subtypes” value was 1000 fold.
`Nc1nc2c(ncn2[C@@H]2O[C@H](COP(=O)(O)OP(=O)(O)OP(O)(O)=S)[C@@H](O)[C@H]2O)c(=O)[nH]1` [GTPγS]: the entries for the “% Decrease in [3H]NT Bound in Presence of 100 μM GTPγS” value on HNT2R and in the test with HNT2RS [4] were 51.5% and 35.3%, respectively.
Turning to `COc1cccc(OC)c1-c1cc(C(=O)NC2(C(=O)O)C3CC4CC(C3)CC2C4)nn1-c1ccnc2cc(Cl)ccc12` (centres unmarked) [SR48692], the “competition of [3H]neurotensin binding” value with HNT2RS [1] and on HNT2RL was “competed at a concentration about two orders of magnitude higher” in each case.
As to “[^3H]NT: tritiated neurotensin radioligand (New England Nuclear, 100 Ci/mmol)”, the “Specific [3H]NT Bound in Presence of 100 μM GTPγS” value with HNT2RS [4] was 451 cpm. The “Specific [3H]NT Bound” value with HNT2RS [4] (no GTPγS) turned out to be 697 cpm.
Consider `c1ccncc1` [Pyridine, pyridine], for which the “binding to H1-histamine receptors” value on H1-histamine receptors is listed as “high affinity binding”. Besides, the “block of AcNT(8-13)-mediated appetite suppression” value in the test with fasted ob/ob males (antihistamine at 1 mg/kg) is “did not block”. The “binding to NTR subtypes” value in test [3] is “not to any NTR subtypes”.
In the case of `COc1cccc(OC)c1-c1cc(C(=O)NC2(C(=O)O)C3CC4CC(C3)CC2C4)nn1-c1ccc(C(=O)N(C)CCCN(C)C)cc1C(C)C.Cl` (centres unmarked) [SR142948], the “affinity for the NT1R and NT2R subtypes” value in test [3] was “comparable affinity”.
On to “NT(9-13): neurotensin (9-13) fragment, a neurotensin receptor binding partner”, for which, in the test on HNT2RS [1], the “competition of [3H]neurotensin binding” value is on record as “bound with lower affinity”.
